These results are taken from publication doi:10.1101/2023.03.26.531482v1 (biorxiv, 2023).

Like-named read-outs stand apart in the source and are kept apart here.

Experiment [1] has as its target MtDTBS (Mycobacterium tuberculosis dethiobiotin synthetase) (Mycobacterium tuberculosis, UniProt P9WPQ5).
Experiment [2] deals with T1, MtDTBS (Mycobacterium tuberculosis dethiobiotin synthetase) (Mycobacterium tuberculosis, UniProt P9WPQ5).
T1 sequence (P9WPQ5 1-226): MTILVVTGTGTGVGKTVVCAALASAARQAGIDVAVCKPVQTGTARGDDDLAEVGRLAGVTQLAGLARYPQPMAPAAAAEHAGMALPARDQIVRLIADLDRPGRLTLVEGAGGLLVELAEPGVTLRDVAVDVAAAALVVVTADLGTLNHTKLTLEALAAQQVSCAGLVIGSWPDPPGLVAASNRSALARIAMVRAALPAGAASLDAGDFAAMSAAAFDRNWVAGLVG
Nature of the experiment: biochemical.

`c1ccc2c(c1)CCC1(C2)NCCc2[nH]cnc21` (stereo not shown) [B1] showed a Kd in experiment [1] of 1240 ± 180 µM. `O=C1CC(c2ccc(F)cc2)Cc2[nH]ncc21` (stereo not shown) [B3] returned a Kd in experiment [1] of 620 ± 140 µM. Against the preceding compound, the Kd is about 2-fold lower. In turn, `O=C1CC[N+](=Cc2cccc(C(F)(F)F)c2)[N-]1` [B7] gave a dissociation constant (Kd) in experiment [1] of 680 ± 30 µM. As to `O=C1Oc2ccccc2C2(O)C3CCCC3C12` (stereo not shown) [compound 1, 9b-hydroxy-6b,7,8,9,9a,9b-hexahydrocyclopenta[3,4]cyclobuta[1,2-c]chromen-6(6aH)-one], the dissociation constant Kd in experiment [2] amounted to 580 ± 40 µM.

Usually Kd stands for the concentration at which binding is half-saturated.
